In patent US20160038516A1, “COMBINATION CANCER THERAPY USING BISPHOSPHONATES AND ANTI-EGFR AGENTS” (Mone Zaidi Consulting, Inc., priority 2012, published 2016):
Entries after “also recorded” stand apart in the source; their conditions may differ.

What was measured:
[1] = system: osteoclast formation; assay: Osteoclast formation assays in vitro; assay type: cell-based; conditions: data not shown
Experimental: We interrogated CMAP with this gene signature to identify chemicals with similar genomic mechanisms to bisphosphonates. Drug-drug matching was performed by a nonparametric, rank-based algorithm using Kolmogorov-Smirnov statistic. Gene Set Enrichment Analysis (GSEA) examined shared mechanisms of action to reveal both mimics and anti-mimics of a given compound or disease. Of the chemicals displaying the highest enrichment scores, the top two were anti-cancer agents, namely the PARP inhibitor 1,5-isoquinolinediol, and a first-generation EGFR kinase inhibitor tyrphostin AG1478 (FIG. 2). These compounds were confirmed as “true” bisphosphonate mimetics using osteoclast formation assays in vitro. As with bisphosphonates, osteoclast formation was inhibited by both 1,5-isoquinolinediol and tyrphostin AG1478, the latter in a concentration-dependent manner (data not shown).

[2] = system: HCC827 (del746-750) lung cancer cell line; assay type: cell-based
Experimental: (§1) To validate this, we evaluated the cellular effects of bisphosphonates in EGFR-negative and EGFR-positive cancer cell lines. Mutated cancer cell lines, namely H520, H1666, H3255, HC827, A549, H1650, MCF-7, Caco-2, SW620, and SW480, were grown using standard protocols, and exposed to bisphosphonates. Thereafter, the cells were subject to the MTT assay to assess viability using a commercial kit. Additionally, in certain instances, annexin V staining was performed using a previously described protocol. Quantitative PCR (qPCR) for BCL, Bax, survivin, as well as for the thirteen bisphosphonate signature genes (FIG. 1) was carried out. Protein extracts were subject to SDS-PAGE followed by Western immunoblotting using antibodies to PARP, Akt (total and phosphorylated), Erk (total and phosphorylated), cyclin D1, cyclin B1, PCNA, and GAPDH (Santa Cruz, USA). Flow cytometry and colony forming assays were also performed.
(§2) Based on this prediction, and the common occurrence of these mutations in lung cancer patients, we examined the effect of available approved bisphosphonates on lung cancer cell lines that are driven by the L858R (H3255) or del746-750 (HCC827) mutation (FIGS. 6 and 7).

[3] = system: HCC827 cells; conditions: mouse, in vivo
Experimental: To verify that that the in vitro experiments described above translated to in vivo efficacy, the effect of bisphosphonates and EGFR inhibitors on tumors in mice were evaluated. HCC827 cells (1×10^8) were injected into the right flank of 6- to 8-week-old female BALB/c nu/nu mice. […] A total of 10 treatments were given, with a 48-hour rest period between injections. Tumor volumes were measured during the rest period following each treatment.
To verify the in vivo mechanism of action, Western analysis and immunohistochemistry were performed on tumor samples at the end of the 10-treatment course. For Western analysis, whole cell protein extracts were obtained with radio-immunoprecipitation assay buffer following standard protocols (Santa Cruz Biotechnology). […] Biotinylated anti-rabbit IgG (E0432, Dako) was used as secondary antibody. Staining was visualized using DAB, and slides were counterstained with hematoxylin, dehydrated, and mounted. Bright-field and fluorescent images were captured using a Stereoscope or Axioplan 2 IE microscope (Zeiss).

[4] = system: lung cancer cell line A549; conditions: A549, wild type EGFR, ras mutation driven
Experimental: as §1

[5] = system: H1975 (L858R/T790M) lung adenocarcinoma cell line; assay: Colony formation, H1975; assay type: cell-based
Experimental: To test this hypothesis, colony formation and cell viability assays were carried out using a L858R/T790M-derived lung adenocarcinoma cell line, H1975.

[6] = system: HCC827 cells; assay: FACS analysis and Western blotting for cell cycle and apoptosis, HCC827; assay type: cell-based
Experimental: as §1

[7] = target: T1, recombinant Her2 (Homo sapiens, UniProt P04626); assay: Cell-free in vitro kinase assay using recombinant Her2 (Kinase-Glo); assay type: biochemical; conditions: incubated 30 minutes with 50 ng recombinant Her2
T1 construct: purchased GENWAY
T1 sequence (P04626 23-1255): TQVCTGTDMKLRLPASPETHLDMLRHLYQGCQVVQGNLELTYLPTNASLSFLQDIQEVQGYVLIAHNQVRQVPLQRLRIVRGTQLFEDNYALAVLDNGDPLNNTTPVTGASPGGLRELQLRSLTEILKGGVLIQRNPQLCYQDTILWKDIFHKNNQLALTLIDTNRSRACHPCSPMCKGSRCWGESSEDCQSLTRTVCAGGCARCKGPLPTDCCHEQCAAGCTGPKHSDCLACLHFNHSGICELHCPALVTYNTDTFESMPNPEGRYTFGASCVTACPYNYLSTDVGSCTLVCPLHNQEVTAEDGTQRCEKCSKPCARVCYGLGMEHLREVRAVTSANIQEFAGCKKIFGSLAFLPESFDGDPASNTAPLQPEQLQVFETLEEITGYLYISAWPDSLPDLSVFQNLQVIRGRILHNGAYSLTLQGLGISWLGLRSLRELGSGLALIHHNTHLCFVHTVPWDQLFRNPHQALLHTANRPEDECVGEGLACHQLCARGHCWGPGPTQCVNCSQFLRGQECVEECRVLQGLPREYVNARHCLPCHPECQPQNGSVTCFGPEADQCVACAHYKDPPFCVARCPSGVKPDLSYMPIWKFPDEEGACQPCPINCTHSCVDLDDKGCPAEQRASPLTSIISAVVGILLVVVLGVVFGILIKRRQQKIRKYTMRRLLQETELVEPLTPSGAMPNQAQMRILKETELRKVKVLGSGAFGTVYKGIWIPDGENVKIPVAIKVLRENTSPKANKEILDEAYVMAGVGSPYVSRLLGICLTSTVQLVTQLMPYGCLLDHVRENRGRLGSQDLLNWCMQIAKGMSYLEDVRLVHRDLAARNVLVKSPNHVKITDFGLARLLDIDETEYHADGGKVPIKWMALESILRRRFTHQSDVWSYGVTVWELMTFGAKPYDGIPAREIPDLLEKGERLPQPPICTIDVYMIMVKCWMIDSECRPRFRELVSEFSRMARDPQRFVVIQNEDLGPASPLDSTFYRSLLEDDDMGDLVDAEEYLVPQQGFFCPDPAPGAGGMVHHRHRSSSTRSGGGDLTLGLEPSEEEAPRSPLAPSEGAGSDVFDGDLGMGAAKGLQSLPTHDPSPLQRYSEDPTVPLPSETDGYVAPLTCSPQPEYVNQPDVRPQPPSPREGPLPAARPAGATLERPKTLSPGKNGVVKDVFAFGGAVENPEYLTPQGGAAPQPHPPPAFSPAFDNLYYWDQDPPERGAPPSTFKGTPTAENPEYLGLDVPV
Experimental: We also performed a cell-free in vitro kinase assay to determine if bisphosphonates could inhibit Her2 activity. Briefly, Ert, ZA, Ris, MA, or Til (doses as shown in FIG. 28A) were incubated for 30 minutes with 50 ng recombinant Her2 or EGFR^L858R protein (GENWAY) at 4° C. and tyrosine kinase activity was measured. Following addition of assay buffer (SIGMA) which contained the poly(Glu, Tyr) (4:1) substrate and ATP, the kinase reaction was allowed to proceed for 30 minutes at 30° C. An equal volume of Kinase-Glo substrate (PROMEGA) was then added, and luminescence read manually (TD-20/20, TURNER DESIGN).

[8] = system: H3255 (L858R) lung cancer cell line
Experimental: as §1, §2

[9] = target: recombinant EGFR (Homo sapiens, UniProt P00533); conditions: 100 μM, incubated 1 hour
Sequence of recombinant EGFR (P00533 25-1210): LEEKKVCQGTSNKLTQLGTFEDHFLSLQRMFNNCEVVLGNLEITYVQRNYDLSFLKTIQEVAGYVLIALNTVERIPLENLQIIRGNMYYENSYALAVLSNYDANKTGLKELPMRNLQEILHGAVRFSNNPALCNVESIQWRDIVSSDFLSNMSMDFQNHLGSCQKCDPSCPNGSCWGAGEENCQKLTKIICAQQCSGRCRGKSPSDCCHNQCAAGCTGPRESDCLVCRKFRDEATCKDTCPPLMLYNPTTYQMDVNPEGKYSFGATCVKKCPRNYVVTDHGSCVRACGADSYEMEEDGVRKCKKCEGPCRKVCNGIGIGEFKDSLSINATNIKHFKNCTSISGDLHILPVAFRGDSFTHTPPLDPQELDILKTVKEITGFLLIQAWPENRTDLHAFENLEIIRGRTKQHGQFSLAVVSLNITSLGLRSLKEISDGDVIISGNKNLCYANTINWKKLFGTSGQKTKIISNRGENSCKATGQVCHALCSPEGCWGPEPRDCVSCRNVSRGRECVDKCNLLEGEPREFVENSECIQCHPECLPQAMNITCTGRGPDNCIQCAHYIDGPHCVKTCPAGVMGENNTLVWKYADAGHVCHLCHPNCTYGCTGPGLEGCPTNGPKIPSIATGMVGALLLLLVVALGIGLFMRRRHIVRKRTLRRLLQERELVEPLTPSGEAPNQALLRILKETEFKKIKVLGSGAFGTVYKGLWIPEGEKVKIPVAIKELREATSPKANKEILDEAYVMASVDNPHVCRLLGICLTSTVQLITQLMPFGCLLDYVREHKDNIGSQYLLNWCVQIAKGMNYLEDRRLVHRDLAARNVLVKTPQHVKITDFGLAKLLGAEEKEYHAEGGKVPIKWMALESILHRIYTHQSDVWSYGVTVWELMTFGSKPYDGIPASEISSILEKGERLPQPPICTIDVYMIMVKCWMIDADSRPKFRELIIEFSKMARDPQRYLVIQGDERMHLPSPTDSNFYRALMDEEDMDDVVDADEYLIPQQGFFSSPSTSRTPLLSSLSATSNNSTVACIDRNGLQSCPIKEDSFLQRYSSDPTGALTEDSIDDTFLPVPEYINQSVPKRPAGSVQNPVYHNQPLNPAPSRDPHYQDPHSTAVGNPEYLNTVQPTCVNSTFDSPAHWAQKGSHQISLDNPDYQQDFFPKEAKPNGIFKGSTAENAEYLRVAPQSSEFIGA
From the text: We used a cell-free in vitro kinase assay using recombinant EGF receptor (EGFR) to determine whether bisphosphonates inhibit the EGFR directly or indirectly. […] A kinase reaction was stimulated with the addition of ATP, following which phosphorylation of the substrate […] was detected using a horseradish peroxidase (HRP)-conjugated anti-phosphotyrosine antibody.

[10] = system: non-EGFR, non-HER2-expressing (MDA-MB-453) breast cancer cell line; assay: FACS cell cycle profile (sub-G1), MDA-MB-453; assay type: cell-based
[11] = system: EGFR-expressing (MDA-MB-231) breast cancer cell line; assay: FACS cell cycle profile (sub-G1), MDA-MB-231; assay type: cell-based
[12] = system: HER2-expressing (BT474) breast cancer cell line; assay: FACS cell cycle profile (sub-G1), BT474; assay type: cell-based
[13] = system: BT474 cells; assay: MTT cell viability, BT474; assay type: cell-based; conditions: BT474, overexpress Her2
From the text: (§3) Thereafter, the cells were subject to the MTT assay to assess viability using a commercial kit.

[14] = system: MDA-MB-231 cells; assay: Colony formation, MDA-MB-231; assay type: cell-based; conditions: tiludronate 20 μM, data not shown
[15] = system: HCC827 cells; assay: Colony formation, HCC827; assay type: cell-based; conditions: tiludronate 40 μM
Experimental: as §1, §2

[16] = system: EGFR-expressing colon cells (SW480); assay: Colony formation (clonogenic assay), SW480; assay type: cell-based
Experimental: as §1

[17] = system: EGFR negative (SW620) colon cancer cell line; assay: Colony formation (clonogenic assay), SW620; assay type: cell-based
Experimental: as §1

[18] = system: MDA-MB-231 cells; assay: MTT cell viability, MDA-MB-231; assay type: cell-based; conditions: MDA-MB-231, overexpress EGFR
From the text: as §3

For `COc1cc2ncnc(Nc3cccc(Cl)c3)c2cc1OC` [tyrphostin AG1478], the osteoclast formation [1] was “inhibited”.

For `NCCC(O)(P(=O)(O)O)P(=O)(O)O` [pamidronate], the “cell viability / cell survival” value [2] was “failed to affect HCC827 cell viability”.

With `Oc1cccc2c(O)nccc12` [1,5-isoquinolinediol] the osteoclast formation [1] was “inhibited”.

`C#Cc1cccc(Nc2ncnc3cc(OCCOC)c(OCCOC)cc23)c1` [erlotinib] was tested, and the “AKT phosphorylation in tumor samples” value [3] was “inhibited AKT phosphorylation”, the “CD31 expression (blood vessels) in tumors” value [3] was “inhibited CD31 expression” and the “ERK phosphorylation in tumor samples” value [3] was “did not inhibit ERK phosphorylation”. The cell viability [4] was “poorly responsive”, the colony formation [5] was “did not inhibit colony formation” and the “cell cycle and apoptosis” value [6] was “mainly increased PARP expression and apoptosis”. For the same compound, the “Her2 tyrosine kinase activity” value [7] was “inhibit the tyrosine kinase activity of Her2”.

In the case of `O=P(O)(O)C(NC1CCCCCC1)P(=O)(O)O` [incadronate], the “cell viability / cell survival” value [2] is reported as “inhibiting cell survival” and the “cell viability / cell survival” value [8] is reported as “inhibiting cell survival”.

With `O=P(O)(O)C(O)(Cc1cccnc1)P(=O)(O)O` [risedronate] the “cell viability / cell survival” value [2] was “inhibiting cell survival”, the “cell viability / cell survival” value [8] was “inhibiting cell survival” and the “Her2 tyrosine kinase activity” value [7] was “inhibit the tyrosine kinase activity of Her2”.

For `NCCCC(O)(P(=O)(O)O)P(=O)(O)O` [alendronate], the EGFR kinase activity [9] was “directly inhibited EGFR kinase activity”, the “cell viability / cell survival” value [2] was “inhibiting cell survival” and the “cell viability / cell survival” value [8] was “inhibiting cell survival”.

With `O=P(O)(O)C(O)(Cc1cnc2ccccn12)P(=O)(O)O` [minodronic acid] the “cell viability / cell survival” value [2] was “inhibiting cell survival; also recorded: two most potent”, the “cell viability / cell survival” value [8] was “inhibiting cell survival; also recorded: two most potent” and the “Her2 tyrosine kinase activity” value [7] was “inhibit the tyrosine kinase activity of Her2”.

In the case of `O=P(O)(O)C(Sc1ccc(Cl)cc1)P(=O)(O)O` [tiludronate], the “sub-G1 fraction (apoptosis)” value [10] is reported as “has no effect”, the “sub-G1 fraction (apoptosis)” value [11] is reported as “has no effect” and the “sub-G1 fraction (apoptosis)” value [12] is reported as “has no effect”. For the same compound, the “cell viability / cell survival” value [2] was “failed to affect cell viability; also recorded: without effect”, the cell viability [13] was “has no effect” and the “cell viability / cell survival” value [8] was “failed to affect cell viability; also recorded: without effect”. The colony formation [5] was “did not affect colony formation”, the colony formation [14] was “not seen” and the colony formation [15] was “not seen”. For the same compound, the colony formation [16] was “has no effect”, the “Her2 tyrosine kinase activity” value [7] was “inhibit the tyrosine kinase activity of Her2” and the colony formation [17] was “has no effect”. For the same compound, the cell viability [18] was “has no effect”.

In the case of `NCCCCCC(O)(P(=O)(O)O)P(=O)(O)O` [neridronate], the “cell viability / cell survival” value [2] is reported as “failed to affect HCC827 cell viability”.
